# In US7807781B2, “Inhibitors of serine protease activity and their use in methods and compositions for treatment of viral infections” (The Regents of the University of Colorado, priority 1999, dated 2010):
# System: HIV-1 strain A018A in MAGI-CCR-5 cells
# Assay: not given
# Type: cell-based
# Conditions: compared with FVYLI (FIG. 4); alone or in combination; not shown
row,Molecule,effect on HIV production in MAGI cells
1,AVFLM: short peptide related to C-terminal pentapeptide of AAT,more or less similar effect
2,FAFLM: short peptide related to C-terminal pentapeptide of AAT,more or less similar effect
3,FIIMI: short peptide related to C-terminal pentapeptide of AAT,more or less similar effect
4,FLFAV: short peptide related to C-terminal pentapeptide of AAT,more or less similar effect
5,FLFCI: short peptide related to C-terminal pentapeptide of AAT,more or less similar effect
6,FLFFI: short peptide related to C-terminal pentapeptide of AAT,more or less similar effect
7,FLFLI: short peptide related to C-terminal pentapeptide of AAT,more or less similar effect
8,FLFVL: short peptide related to C-terminal pentapeptide of AAT,more or less similar effect
9,FLFVV: short peptide related to C-terminal pentapeptide of AAT,more or less similar effect
10,FLMFI: short peptide related to C-terminal pentapeptide of AAT,more or less similar effect
11,FLMII: short peptide related to C-terminal pentapeptide of AAT,more or less similar effect
12,FLVFI: short peptide related to C-terminal pentapeptide of AAT,more or less similar effect
13,FMLLI: short peptide related to C-terminal pentapeptide of AAT,more or less similar effect
14,FVALM: short peptide related to C-terminal pentapeptide of AAT,more or less similar effect
15,FVFAM: short peptide related to C-terminal pentapeptide of AAT,more or less similar effect
16,FVFLA: short peptide related to C-terminal pentapeptide of AAT,more or less similar effect
17,FVFLM: short peptide related to C-terminal pentapeptide of AAT,more or less similar effect
18,FVYLI: carboxyterminal peptide derived but not necessarily identical to a respective C-terminal pentapeptide from AAT,more or less similar effect

# System: HIV-infected CCRF-CEM and uninfected Molt-4 cells
# Assay: not given
# Conditions: cited from earlier work
row,Molecule,concentration range of dose-dependent inhibition of syncytium formation [mM]
1,"UTI: Human urinary trypsin inhibitor, a protein indistinguishable from ITI (protein, UniProt P02760 206-352, looked up, Inter-alpha-trypsin inhibitor light chain) Inter-alpha-trypsin inhibitor …: AVLPQEEEGSGGGQLVTEVTKKEDSCQLGYSAGPCMGMTSRYFYNGTSMACETFQYGGCMGNGNNFVTEKECLQTCRTVAACNLPIVRGPCRAFIQLWAFDAVKGKCVLFPYGGCQGNGNKFYSEKECREYCGVPGDGDEELLRFSN",0.1 to 1

# System: NF-κB
# Assay: IL-18-induced NF-κB expression
# Type: cell-based
# Conditions: compared with IL-18 alone (lane 4)
row,Molecule,IL-18-induced NF-κB expression
1,Cc1cccc(Cc2nnc(C(=O)C(NC(=O)[C@@H]3CCCN3C(=O)[C@@H](NC(=O)OCc3ccccc3)C(C)C)C(C)C)o2)c1 (stereo partly shown) [P3 inh],reduced

# System: HIV-1 production in U1 cells
# Assay: U1 monocytic cell assay, IL-18-induced HIV-1 p24 antigen
# Type: cell-based
# Conditions: doses comparable to the composition of the invention (FIG. 6)
# Excerpt: U1 monocytic cell assay. U1 cells are obtained from the AIDS Research and Reference Reagent Program, National Institute of Allergy and Infectious Diseases, NIH. U1 cells are maintained in T-175 polystyrene flasks (Falcon, Becton Dickinson, Franklin Lakes, N.J.) in medium and used when in log phase growth. Cells are counted in a hemacytometer, examined for viability by Trypan blue exclusion (>95% for all experiments) and resuspended in fresh medium at 2×10^6 per ml. Two-hundred fifty […] are added to wells of 24-well polystyrene tissue culture plates (Falcon), followed by the addition of medium or AAT to produce the final concentration to be tested in a volume of […]. After 1.0 hr of incubation (37° C., 5% CO2), 50 ml of medium (control) or stimulus diluted in medium are added to wells to produce the final concentration of stimulus to be tested. The final culture volumes are […] and contained 1×10^6 cells per ml. After 48 hr of incubation (37° C. and 5% CO2) 50 ml of 10% (vol/vol) Triton-X-100 (Fisher Scientific, Fair Lawn, N.J.) is added to each culture (final concentration of 1% vol/vol), and cultures are frozen and thawed once. This is followed by assay for HIV-1 p24 antigen by ELISA with a lower limit of detection of 31 pg/ml (NCI-Frederick Cancer Research and Development Center, Frederick, Md.). The disruption of cells due to the addition of Triton-X-100 and the freeze-thaw cycle produced cell lysates and enabled assessment of total (secreted and cell-associated) production of p24 antigen.
# Data are presented as means±SEM. Group means are compared by ANOVA using Fisher's least significant difference. For data expressed as percent change, the values for p24 in control cultures (medium alone) are subtracted from those for each culture-containing stimulus. The p24 concentrations in cultures conducted in the presence of stimulus alone are set at 100%. Percent p24 in cultures containing stimulus and AAT are calculated by dividing the measured p24 by that present in cultures containing stimulus alone. The resultant fraction is expressed as a percent.
# The U1 cell line is derived from human monocytic U937 cells into which 2 copies of HIV-1 provirus are incorporated into host genome. Exposing U1 cells to pro-inflammatory cytokines such as IL-18, IL-1, IL-6 and TNF, phorbol esters or hyperosmolarity results in the induction of HIV-1 as assessed by p24 antigen. Stimulation of U1 cells with 0.5 nM IL-18 induced large amounts of p24 antigen after 48 hr of incubation in 3 separate experiments. U1 cells cultured in medium alone (control) contained a mean of 41.3±11.5 pg/ml p24 antigen, which is increased 150-fold to 6,235±1,775 pg/ml p24 following stimulation with IL-18. […] At 1, 2 and 3 mg/ml AAT, the percent reductions observed compared to stimulation with IL-18 alone are 65±1.8, 93±3.0 and 98±1%, respectively.
row,Molecule,anti-HIV activity
1,"Prolastin: commercially available purified variant of AAT sold by Bayer, used as control AAT preparation",fails to display anti-HIV activity

# Same assay, conditions: same experimental condition as in Example 1 (FIG. 11)
row,Molecule,anti-HIV effect
1,Cc1cccc(Cc2nnc(C(=O)C(NC(=O)[C@@H]3CCCN3C(=O)[C@@H](NC(=O)OCc3ccccc3)C(C)C)C(C)C)o2)c1 (stereo partly shown) [P3 inh],significant anti-HIV effect
